Results as given in patent publication US10471046B2, “Method for treating, preventing, or reducing the risk of skin infection” (Melinta Subsidiary Corp., priority 2014, dated 2019).
Converted amounts (≈) assume the structure as drawn.

Tested on: S. aureus
Experiment: Minimum inhibitory concentrations (MICs) for S. aureus of exemplary compounds (Table 2)
Assay type: cell-based
Details: Staphylococcus aureus, minimum inhibitory concentrations for S. aureus; read-out: MICs
How it was run: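 Growth of S. aureus in media with or without compound, by broth microdilution in microtiter trays following NCCLS M7-A5 guidelines. Values are MICs in μg/mL.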

Q: `CC(=O)NC[C@H]1CN(c2ccc(-c3ccc(CNCc4c(N)oc5ccccc5c4=O)cc3)c(F)c2)C(=O)O1` [Compound 4129, N-[3-(4′-{[(2-Amino-4-oxo-4H-chromen-3-ylmethyl)-amino]-methyl}-2-fluoro-biphenyl-4-yl)-2-oxo-oxazolidin-5-(S)-ylmethyl]-acetamide] was tested. Which MIC did it give?
A: The MIC was 4 µg/mL (≈ 7.54 µM).

Q: Which MIC does the source give for `CC(=O)NC[C@H]1CN(c2ccc(-c3ccc(CCn4ccnc4)cc3)c(F)c2)C(=O)O1` [Compound 1002, N-{3-[2-Fluoro-4′-(2-imidazol-1-yl-ethyl)-biphenyl-4-yl]-2-oxo-oxazolidin-5-(S)-ylmethyl}-acetamide] here?
A: The MIC was 2 µg/mL (≈ 4.73 µM).

Q: Which MIC does the source give for `CC(=O)NC[C@H]1CN(c2ccc(-c3ccc(COCc4ccccn4)cc3)c(F)c2)C(=O)O1` [Compound 4192, N-{3-[2-Fluoro-4′-(pyridin-2-ylmethoxymethyl)-biphenyl-4-yl]-2-oxo-oxazolidin-5-(S)-ylmethyl}-acetamide] here?
A: The MIC was 1 µg/mL (≈ 2.22 µM).

Q: Which MIC does the source give for `CC(=O)NC[C@H]1CN(c2ccc(-c3ccc(C(NC(=O)OCc4ccccc4)c4nnn(C)n4)cc3)c(F)c2)C(=O)O1` (mixture of isomers) [Compound 1041, [{4′-[5-(S)-(Acetylamino-methyl)-2-oxo-oxazolidin-3-yl]-2′-fluoro-biphenyl-4-yl}-(2-methyl-2H-tetrazol-5-(R/S)-yl)-methyl]-carbamic acid benzyl ester] here?
A: Its MIC is 1 µg/mL (≈ 1.74 µM).

Q: Which MIC does the source give for `CC(=O)NC[C@H]1CN(c2ccc(-c3ccc(CNCCc4scnc4C)cc3)c(F)c2)C(=O)O1` [Compound 4096, N-[3-(2-Fluoro-4′-{[2-(4-methyl-thiazol-5-yl)-ethylamino]-methyl}-biphenyl-4-yl)-2-oxo-oxazolidin-5-(S)-ylmethyl]-acetamide] here?
A: Its MIC is 4 µg/mL (≈ 8.29 µM).

Q: `CC(=O)NC[C@H]1CN(c2ccc(-c3ccc(Cn4nnnc4N)cc3)c(F)c2)C(=O)O1` [Compound 1025, N-{3-[4′-(5-Amino-tetrazol-1-ylmethyl)-2-fluoro-biphenyl-4-yl]-2-oxo-oxazolidin-5-(S)-ylmethyl}-acetamide] was tested. Which MIC did it give?
A: Its MIC is 0.5 µg/mL (≈ 1.18 µM).

Q: Which MIC does the source give for `CC(=O)NC[C@H]1CN(c2ccc(-c3ccc(CNC(=O)[C@H](N)Cc4cnc[nH]4)cc3)c(F)c2)C(=O)O1` [Compound 4292, N-{4′-[5-(S)-(Acetylamino-methyl)-2-oxo-oxazolidin-3-yl]-2′-fluoro-biphenyl-4-ylmethyl}-2-(R)-amino-3-(3H-imidazol-4-yl)-propionamide] here?
A: The MIC was 16 µg/mL (≈ 32.4 µM).

Q: For `CC(=O)NC[C@H]1CN(c2ccc(-c3ccc(S(=O)(=O)Cc4ccncc4)cc3)c(F)c2)C(=O)O1` [Compound 3003, N-{3-[2-Fluoro-4′-(pyridin-4-ylmethanesulfonyl)-biphenyl-4-yl]-2-oxo-oxazolidin-5-(S)-ylmethyl}-acetamide], which MIC is on record?
A: The MIC was 2 µg/mL (≈ 4.14 µM).

Q: How did the MIC turn out when `CC(=O)NC[C@H]1CN(c2ccc(-c3ccc(CNC(=O)C4(NC(=O)OC(C)(C)C)CC4)cc3)c(F)c2)C(=O)O1` [Compound 4304, [1-({4′-[5-(S)-(Acetylamino-methyl)-2-oxo-oxazolidin-3-yl]-2′-fluoro-biphenyl-4-ylmethyl}-carbamoyl)-cyclopropyl]-carbamic acid tert-butyl ester] was run?
A: Its MIC is 16 µg/mL (≈ 29.6 µM).

Q: Which MIC does the source give for `CC(=O)NC[C@H]1CN(c2ccc(-c3ccc(CNCc4nccs4)cc3)c(F)c2)C(=O)O1` [Compound 4074, N-[3-(2-Fluoro-4′-{[(thiazol-2-ylmethyl)-amino]-methyl}-biphenyl-4-yl)-2-oxo-oxazolidin-5-(S)-ylmethyl]-acetamide] here?
A: The MIC was 1 µg/mL (≈ 2.2 µM).

Q: With `CC(=O)NC[C@H]1CN(c2ccc(-c3ccc(CNCc4ccncc4)c(F)c3)c(F)c2)C(=O)O1` [Compound 4155, N-[3-(2,3′-Difluoro-4′-{[(pyridin-4-ylmethyl)-amino]-methyl}-biphenyl-4-yl)-2-oxo-oxazolidin-5-(S)-ylmethyl]-acetamide] as the compound, how does the MIC read?
A: Its MIC is 2 µg/mL (≈ 4.29 µM).

Q: With `COc1ccc(CN(C)Cc2ccc(-c3ccc(N4C[C@H](CNC(C)=O)OC4=O)cc3F)cc2)cn1` [Compound 4055, N-[3-(2-Fluoro-4′-{[(6-methoxy-pyridin-3-ylmethyl)-methyl-amino]-methyl}-biphenyl-4-yl)-2-oxo-oxazolidin-5-(S)-ylmethyl]-acetamide] as the compound, how does the MIC read?
A: Its MIC is 2 µg/mL (≈ 4.06 µM).

Q: With `CC(=O)NC[C@H]1CN(c2ccc(-c3ccc(CNCc4csnn4)c(F)c3)c(F)c2)C(=O)O1` [Compound 4164, N-[3-(2,3′-Difluoro-4′-{[([1,2,3]thiadiazol-4-ylmethyl)-amino]-methyl}-biphenyl-4-yl)-2-oxo-oxazolidin-5-(S)-ylmethyl]-acetamide] as the compound, how does the MIC read?
A: Its MIC is 1 µg/mL (≈ 2.11 µM).

Q: How did the MIC turn out when `CC(=O)NC[C@H]1CN(c2ccc(-c3ccc(C(=O)NCCc4cnc[nH]4)c(F)c3)c(F)c2)C(=O)O1` [Compound 4191, 4′-[5-(S)-(Acetylamino-methyl)-2-oxo-oxazolidin-3-yl]-3,2′-difluoro-biphenyl-4-carboxylic acid [2-(3H-imidazol-4-yl)-ethyl]-amide] was run?
A: Its MIC is 1 µg/mL (≈ 2.07 µM).

Q: With `CC(=O)NC[C@H]1CN(c2ccc(-c3ccc(C[S+]([O-])c4ccccn4)cc3)c(F)c2)C(=O)O1` (stereo partly drawn) [Compound 2023, N-{3-[2-Fluoro-4′-(pyridine-2-sulfinylmethyl)-biphenyl-4-yl]-2-oxo-oxazolidin-5-(S)-ylmethyl}-acetamide] as the compound, how does the MIC read?
A: Its MIC is 1 µg/mL (≈ 2.14 µM).

Q: `CC(=O)NC[C@H]1CN(c2ccc(-c3ccc(CNCCN4CCNC4=O)cc3)c(F)c2)C(=O)O1` [Compound 4114, N-[3-(2-Fluoro-4′-{[2-(2-oxo-imidazolidin-1-yl)-ethylamino]-methyl}-biphenyl-4-yl)-2-oxo-oxazolidin-5-(S)-ylmethyl]-acetamide] was tested. Which MIC did it give?
A: Its MIC is 16 µg/mL (≈ 34.1 µM).

Q: Which MIC does the source give for `CC(=O)NC[C@H]1CN(c2ccc(-c3ccc(Cn4cc(CO)nn4)cc3)c(F)c2)C(=O)O1` [Compound 1028, N-{3-[2-Fluoro-4′-(4-hydroxymethyl-[1,2,3]triazol-1-ylmethyl)-biphenyl-4-yl]-2-oxo-oxazolidin-5-(S)-ylmethyl}-acetamide] here?
A: The MIC was 1 µg/mL (≈ 2.28 µM).

Q: `CC(=O)NC[C@H]1CN(c2ccc(-c3ccc([C@H](CO)N4CCC4)cc3)c(F)c2)C(=O)O1` [Compound 1063, N-{3-[4′-(1-(R)-Azetidin-1-yl-2-hydroxy-ethyl)-2-fluoro-biphenyl-4-yl]-2-oxo-oxazolidin-5-(S)-ylmethyl}-acetamide] was tested. Which MIC did it give?
A: Its MIC is 8 µg/mL (≈ 18.7 µM).

Q: `CC(=O)NC[C@H]1CN(c2ccc(-c3ccc(CNCc4ncsn4)cc3)c(F)c2)C(=O)O1` [Compound 4206, N-[3-(2-Fluoro-4′-{[([1,2,4]thiadiazol-3-ylmethyl)-amino]-methyl}-biphenyl-4-yl)-2-oxo-oxazolidin-5-(S)-ylmethyl]-acetamide] was tested. Which MIC did it give?
A: The MIC was 1 µg/mL (≈ 2.2 µM).

Q: With `CC(=O)NC[C@H]1CN(c2ccc(-c3ccc(CNS(=O)(=O)c4ccc(C(F)(F)F)cc4)cc3)c(F)c2)C(=O)O1` [Compound 2058, N-(3-{2-Fluoro-4′-[(4-trifluoromethyl-benzenesulfonylamino)-methyl]-biphenyl-4-yl}-2-oxo-oxazolidin-5-(S)-ylmethyl)-acetamide] as the compound, how does the MIC read?
A: Its MIC is 32 µg/mL (≈ 56.6 µM).

Q: With `CC(=O)NC[C@H]1CN(c2ccc(-c3ccc([C@H](O)Cn4ccnn4)cc3)c(F)c2)C(=O)O1` [Compound 1061, N-{3-[2-Fluoro-4′-(1-(S)-hydroxy-2-[1,2,3]triazol-1-yl-ethyl)-biphenyl-4-yl]-2-oxo-oxazolidin-5-(S)-ylmethyl}-acetamide] as the compound, how does the MIC read?
A: Its MIC is 1 µg/mL (≈ 2.28 µM).

Q: How did the MIC turn out when `CC(=O)NC[C@H]1CN(c2ccc(-c3ccc(CNCc4ccc(-c5ccccn5)s4)cc3)c(F)c2)C(=O)O1` [Compound 4119, N-[3-(2-Fluoro-4′-{[(5-pyridin-2-yl-thiophen-2-ylmethyl)-amino]-methyl}-biphenyl-4-yl)-2-oxo-oxazolidin-5-(S)-ylmethyl]-acetamide] was run?
A: The MIC was 1 µg/mL (≈ 1.88 µM).

Q: How did the MIC turn out when `CC(=O)NC[C@H]1CN(c2ccc(-c3ccc(CNCc4c[nH]nc4-c4cccs4)cc3)c(F)c2)C(=O)O1` [Compound 4127, N-[3-(2-Fluoro-4′-{[(3-thiophen-2-yl-1H-pyrazol-4-ylmethyl)-amino]-methyl}-biphenyl-4-yl)-2-oxo-oxazolidin-5-(S)-ylmethyl]-acetamide] was run?
A: The MIC was 0.5 µg/mL (≈ 0.962 µM).

Q: Which MIC does the source give for `CC(=O)NC[C@H]1CN(c2ccc(-c3ccc(CNC(=O)C4(N)CC4)cc3)c(F)c2)C(=O)O1` [Compound 4321, 1-Amino-cyclopropanecarboxylic acid {4′-[5-(S)-(acetylamino-methyl)-2-oxo-oxazolidin-3-yl]-2′-fluoro-biphenyl-4-ylmethyl}-amide] here?
A: The MIC was 2 µg/mL (≈ 4.54 µM).

Q: How did the MIC turn out when `CC(=O)NC[C@H]1CN(c2ccc(-c3ccc(C(=O)NCc4nccs4)nc3)c(F)c2)C(=O)O1` [Compound 4189, 5-{4-[5-(S)-(Acetylamino-methyl)-2-oxo-oxazolidin-3-yl]-2-fluoro-phenyl}-pyridine-2-carboxylic acid (thiazol-2-ylmethyl)-amide] was run?
A: The MIC was 1 µg/mL (≈ 2.13 µM).

Q: For `CC(=O)NC[C@H]1CN(c2ccc(-c3ccc(Cn4cnc5c(NCCCO)ncnc54)cc3)c(F)c2)C(=O)O1` [Compound 1107, N-(3-{2-Fluoro-4′-[6-(3-hydroxy-propylamino)-purin-9-ylmethyl]-biphenyl-4-yl}-2-oxo-oxazolidin-5-(S)-ylmethyl)-acetamide], which MIC is on record?
A: Its MIC is 2 µg/mL (≈ 3.75 µM).

Q: With `CC(=O)NC[C@H]1CN(c2ccc(-c3ccc(CNNc4ccccn4)cc3)c(F)c2)C(=O)O1` [Compound 2048, N-{3-[2-Fluoro-4′-(N′-pyridin-2-yl-hydrazinomethyl)-biphenyl-4-yl]-2-oxo-oxazolidin-5-(S)-ylmethyl}-acetamide] as the compound, how does the MIC read?
A: The MIC was 0.5 µg/mL (≈ 1.11 µM).

Q: How did the MIC turn out when `CC(=O)NC[C@H]1CN(c2ccc(-c3ccc(CNCc4cccc(C)n4)cc3)c(F)c2)C(=O)O1` [Compound 4072, N-[3-(2-Fluoro-4′-{[(6-methyl-pyridin-2-ylmethyl)-amino]-methyl}-biphenyl-4-yl)-2-oxo-oxazolidin-5-(S)-ylmethyl]-acetamide] was run?
A: Its MIC is 2 µg/mL (≈ 4.32 µM).

Q: `CC(=O)NC[C@H]1CN(c2ccc(-c3ccc(CNCc4cc(C)oc4C)cc3)c(F)c2)C(=O)O1` [Compound 4103, N-[3-(4′-{[(2,5-Dimethyl-furan-3-ylmethyl)-amino]-methyl}-2-fluoro-biphenyl-4-yl)-2-oxo-oxazolidin-5-(S)-ylmethyl]-acetamide] was tested. Which MIC did it give?
A: The MIC was 8 µg/mL (≈ 17.2 µM).

Same assay, conditions: Staphylococcus aureus, read-out: MICs

Q: `CC(=O)NC[C@H]1CN(c2ccc(-c3ccc(Cc4csc(NCC5CCCO5)n4)cc3)c(F)c2)C(=O)O1` (stereo partly drawn) [Compound 1020, N-[3-(2-Fluoro-4′-{2-[(tetrahydro-furan-2-ylmethyl)-amino]-thiazol-4-ylmethyl}-biphenyl-4-yl)-2-oxo-oxazolidin-5-(S)-ylmethyl]-acetamide] was tested. Which MIC did it give?
A: The MIC was 1 µg/mL (≈ 1.91 µM).
